Data taken from US9650399B2, “Salicylic acid derivatives, pharmaceutically acceptable salt thereof, composition thereof and method of use thereof” (The Governing Council of the University of Toronto, priority 2012, dated 2017).
“Also recorded” adds a separate entry of the source.

How the values were obtained:
[1] = test system: BTSCs; experiment: alamarBlue cytotoxicity across BTSC lines; type: cell-based, human; conditions: Homo sapiens; for EC50: read-out: EC50s across all 8 BTSCs evaluated; for IC50: read-out: IC50 values of the top four ranked compounds against BTSCs
Procedure: First, the library was screened for biological activity against a set of three representative GBM BTSCs derived from GBM patients, including the very aggressive GBM BTSC lines, BTSC73M, BTSC30M, BTSC68EF. Dissociated BTSC spheres were seeded at 1500 cells/96-well and treated with drug compound or vehicle (DMSO) one day after plating. Cell viability following drug treatment was assessed after 72 hrs using the ALAMARBLUE™ assay (Invitrogen) according to the manufacturer's instructions. All culture experiments were performed in triplicate with a minimum of three wells per condition.
BTSC spheres were dissociated to single cells with the enzyme Accumax (Innovative Technologies), seeded at 1500 cells/96-well and treated with drug or vehicle (DMSO) one day after plating. […] BTSC spheres were dissociated to single cells as above and plated in 96 well plates in triplicate at 3000 cells/96-well. […] Cell viability following drug treatment was assessed three days later using the ALAMARBLUE™ assay (Invitrogen) according to the manufacturer's instructions. All culture experiments were performed in triplicate with a minimum of three wells per condition.

[2] = test system: BTSC68EF; experiment: alamarBlue cell viability, BTSC 68EF; type: cell-based, human; conditions: Homo sapiens, read-out: 68EF IC50 (μM)
In short: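 Patient-derived GBM brain tumour stem cells, dissociated spheres seeded at 1500 cells/96-well, or 3000 cells/96-well in one setup. Drug or DMSO vehicle added one day after plating. Viability read by alamarBlue after 72 hrs, triplicate wells.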

[3] = test system: Prostate (DU145); experiment: IC50 in prostate cancer cells; type: cell-based; conditions: Homo sapiens, DU-145; Table 6
[4] = target: T1, c-Src (Homo sapiens, UniProt P12931); experiment: HotSpot radiometric kinase assay, c-Src; type: biochemical; conditions: 5 uM compound, 10 μM ATP, duplicate (Data 1, Data 2); for remaining activity at 5 µM: read-out: % Enzyme activity relative to DMSO (control), c-Src
T1 construct: purchased Reaction Biology Corporation
T1 sequence (P12931 whole entry): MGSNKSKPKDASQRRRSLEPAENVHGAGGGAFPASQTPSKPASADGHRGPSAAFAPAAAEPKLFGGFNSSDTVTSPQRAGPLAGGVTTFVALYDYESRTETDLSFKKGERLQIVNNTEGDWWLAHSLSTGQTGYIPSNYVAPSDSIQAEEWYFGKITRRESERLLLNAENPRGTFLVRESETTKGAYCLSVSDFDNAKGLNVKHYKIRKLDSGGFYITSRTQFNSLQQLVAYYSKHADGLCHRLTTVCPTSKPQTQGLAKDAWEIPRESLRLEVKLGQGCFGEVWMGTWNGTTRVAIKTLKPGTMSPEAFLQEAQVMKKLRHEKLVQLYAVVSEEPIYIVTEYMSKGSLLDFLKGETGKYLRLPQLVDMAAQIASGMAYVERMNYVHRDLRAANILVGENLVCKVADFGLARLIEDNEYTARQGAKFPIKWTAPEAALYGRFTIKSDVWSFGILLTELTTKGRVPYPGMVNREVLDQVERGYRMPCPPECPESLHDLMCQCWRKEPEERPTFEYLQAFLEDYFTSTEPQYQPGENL
Procedure: (§1) Briefly, this assay employs a radiometric detection system to measure kinase phosphoryl transfer activity.
(§2) Test compound was evaluated at a single dose of 5 μM in duplicate mode. […] Reactions were carried out at 10 μM ATP.
(§3) Preliminary screen against AKT, c-Src, ERK1, JaK1 and JaK2 was performed at Reaction Biology Corporation (www.reactionbiology.com, Malvern, Pa.) using the “HotSpot” assay platform. Specific kinase/substrate pairs along with their required cofactors were prepared in reaction buffer; 20 mM Hepes pH 7.5, 10 mM MgCl2, 1 mM EGTA, 0.02% Brij35, 0.02 mg/ml BSA, 0.1 mM Na3VO4, 2 mM DTT, 1% DMSO. The screen was completed in duplicate at a single concentration of 5 μM. The reaction well with the subject compound was treated with a mixture of ATP (Sigma, St. Louis Mo.) and ^33P ATP (Perkin Elmer, Waltham Mass.) to a final concentration of 10 μM. […] Reaction wells were kept at room temperature for 120 minutes, followed by spotting each of the reactions onto P81 ion exchange filter paper (Whatman Inc., Piscataway, N.J.). […] Background was subtracted using control reactions and the kinase activity data was expressed as the percent remaining kinase activity in test samples compared to vehicle (dimethyl sulfoxide) reactions. All IC50 values (table 3) and curve fitting were produced using Prism (GraphPad Software) (FIG. 5).

[5] = test system: leukemia cancer cells (AML-2); experiment: IC50 in leukemia cancer cells; type: cell-based; conditions: Table 6
[6] = test system: Breast cancer cells (MDA-MB-468); experiment: IC50 in breast cancer cells; type: cell-based; conditions: Homo sapiens, Table 6
[7] = test system: normal human fetal astrocytes (HF 2003, HF 2006, HF 2009, HF 2013); experiment: toxicity in normal human fetal astrocytes; type: cell-based; conditions: concentrations of up to 5 μM
Procedure: Given the nM cytoxicity, these compounds were assayed for biological effects in healthy cells.
GBM BTSCs were cultured from a series of tumor specimens obtained following informed consent from adult GBM patients during their operative procedure as previously described (Kelly et al, Stem Cells 2009) and approved by the University of Calgary Ethics Review Board. Briefly, BTSC cultures were initiated in serum-free defined culture medium (SFM) and gave rise to nonadherent spheres after 7 to 21 days in culture. Primary tumor spheres were expanded for several passages and then cryopreserved in 10% DMSO (Sigma Aldrich) in serum-free defined medium until use in experiments. Human fetal neural stem cells were also cultured as previously described and induced to differentiate into astrocytes by addition of 10% fetal bovine serum and removal of EGF, FGF-2 and heparan sulfate.

[8] = target: T2, JAK2 (Homo sapiens, UniProt O60674); experiment: HotSpot radiometric kinase assay, JAK2; type: biochemical; conditions: 5 uM compound, 10 μM ATP, duplicate (Data 1, Data 2); for remaining activity at 5 µM: read-out: % Enzyme activity relative to DMSO (control), JAK2
T2 construct: purchased Reaction Biology Corporation
T2 sequence (O60674 whole entry): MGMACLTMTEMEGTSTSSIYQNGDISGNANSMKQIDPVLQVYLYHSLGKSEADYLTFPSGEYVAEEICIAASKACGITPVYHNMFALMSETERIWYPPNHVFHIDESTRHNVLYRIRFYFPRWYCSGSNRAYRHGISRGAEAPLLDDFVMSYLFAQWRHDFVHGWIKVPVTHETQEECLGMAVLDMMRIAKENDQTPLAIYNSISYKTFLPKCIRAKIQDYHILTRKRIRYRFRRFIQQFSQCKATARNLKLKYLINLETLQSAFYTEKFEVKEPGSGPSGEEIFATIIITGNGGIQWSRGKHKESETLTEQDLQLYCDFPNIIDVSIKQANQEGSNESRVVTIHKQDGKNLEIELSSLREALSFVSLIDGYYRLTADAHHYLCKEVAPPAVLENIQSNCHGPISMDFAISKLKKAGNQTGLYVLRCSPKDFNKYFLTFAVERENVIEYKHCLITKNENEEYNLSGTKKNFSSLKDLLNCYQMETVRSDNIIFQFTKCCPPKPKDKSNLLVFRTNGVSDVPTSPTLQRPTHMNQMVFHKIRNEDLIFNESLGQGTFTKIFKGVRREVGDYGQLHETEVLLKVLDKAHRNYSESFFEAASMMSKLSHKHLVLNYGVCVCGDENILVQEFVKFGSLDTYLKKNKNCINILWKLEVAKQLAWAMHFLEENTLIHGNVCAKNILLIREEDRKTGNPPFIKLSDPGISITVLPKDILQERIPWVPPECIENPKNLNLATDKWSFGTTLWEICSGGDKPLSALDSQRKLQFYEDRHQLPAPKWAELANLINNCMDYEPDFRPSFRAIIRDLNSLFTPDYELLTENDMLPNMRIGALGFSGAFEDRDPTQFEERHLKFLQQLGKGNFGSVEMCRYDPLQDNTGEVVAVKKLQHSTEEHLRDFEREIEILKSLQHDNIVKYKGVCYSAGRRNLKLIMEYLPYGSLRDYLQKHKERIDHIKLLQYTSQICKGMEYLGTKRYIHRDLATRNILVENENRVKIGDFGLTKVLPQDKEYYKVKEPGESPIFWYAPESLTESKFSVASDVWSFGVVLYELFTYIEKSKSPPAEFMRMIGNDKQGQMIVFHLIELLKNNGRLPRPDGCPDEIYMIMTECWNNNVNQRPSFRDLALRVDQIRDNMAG
Procedure: as §1, §2, §3

[9] = test system: 147EF; experiment: alamarBlue cell viability, BTSC 147EF; type: cell-based, human; conditions: Homo sapiens, Table 4 library screen
In short: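 Glioma stem-cell spheres were dissociated to single cells and plated at 1500 cells/well (3000 cells/well in the repeat set). Serial dilutions were added one day after plating: 5 μM–100 nM in the first set, 25 μM–10 nM in the second. Viability was read by alamarBlue three days later, in triplicate.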

[10] = target: T3, ERK1 (Homo sapiens, UniProt P27361); experiment: HotSpot radiometric kinase assay, ERK1; type: biochemical; conditions: 5 uM compound, 10 μM ATP, duplicate (Data 1, Data 2); for remaining activity at 5 µM: read-out: % Enzyme activity relative to DMSO (control), ERK1
T3 construct: purchased Reaction Biology Corporation
T3 sequence (P27361 whole entry): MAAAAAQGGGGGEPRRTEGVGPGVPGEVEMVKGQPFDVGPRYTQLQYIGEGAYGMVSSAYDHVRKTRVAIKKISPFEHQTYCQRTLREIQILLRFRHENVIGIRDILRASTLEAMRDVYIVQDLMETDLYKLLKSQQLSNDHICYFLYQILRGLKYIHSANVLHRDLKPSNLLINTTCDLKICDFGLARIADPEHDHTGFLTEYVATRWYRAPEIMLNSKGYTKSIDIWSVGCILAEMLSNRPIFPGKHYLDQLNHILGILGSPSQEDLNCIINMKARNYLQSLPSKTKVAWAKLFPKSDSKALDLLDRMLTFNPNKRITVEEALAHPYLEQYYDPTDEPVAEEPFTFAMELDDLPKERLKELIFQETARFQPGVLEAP

[11] = target: T4, AKT1 (Homo sapiens, UniProt P31749); experiment: HotSpot radiometric kinase assay, AKT1; type: biochemical; conditions: 5 uM compound, 10 μM ATP, duplicate (Data 1, Data 2); for remaining activity at 5 µM: read-out: % Enzyme activity relative to DMSO (control), AKT1
T4 construct: purchased Reaction Biology Corporation
T4 sequence (P31749 whole entry): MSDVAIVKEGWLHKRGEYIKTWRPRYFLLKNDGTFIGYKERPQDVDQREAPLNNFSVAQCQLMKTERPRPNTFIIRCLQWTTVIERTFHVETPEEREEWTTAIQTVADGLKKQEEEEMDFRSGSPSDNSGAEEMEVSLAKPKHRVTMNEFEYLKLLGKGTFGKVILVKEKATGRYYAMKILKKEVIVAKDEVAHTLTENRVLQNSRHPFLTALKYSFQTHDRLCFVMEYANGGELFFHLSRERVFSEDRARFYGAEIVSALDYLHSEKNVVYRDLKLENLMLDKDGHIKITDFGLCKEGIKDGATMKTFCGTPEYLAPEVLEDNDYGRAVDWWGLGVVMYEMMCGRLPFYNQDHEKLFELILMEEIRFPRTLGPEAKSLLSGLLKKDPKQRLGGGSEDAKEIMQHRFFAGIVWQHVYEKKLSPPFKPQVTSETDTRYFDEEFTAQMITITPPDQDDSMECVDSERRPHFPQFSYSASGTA

[12] = remaining activity, listed as SH-05-07

**Q.** For CN(CC(=O)N(Cc1ccc(C2CCCCC2)cc1)c1ccc(C(=O)O)cc1)S(=O)(=O)c1c(F)c(F)c(F)c(F)c1F [Compound 31, 4-(N-(4-cyclohexylbenzyl)-2-(2,3,4,5,6-pentafluoro-N-methylphenylsulfonamido)acetamido)benzoic acid], which EC50 [1] is on record?
**A.** Its EC50 is 66 to 1140 nM.

**Q.** What about the IC50 [1] of the same molecule?
**A.** The IC50 was 100 to 3800 nM.

**Q.** What about the IC50 [2] of the same molecule?
**A.** Its IC50 is 0.531 µM.

**Q.** What about the IC50 [3] of the same molecule?
**A.** Its IC50 is 11300 nM.

**Q.** And the remaining activity at 5 µM [4]?
**A.** Its remaining activity at 5 µM is 50.8%.

**Q.** And the IC50 [5]?
**A.** The IC50 was under 1000 nM.

**Q.** And the IC50 [6]?
**A.** The IC50 was under 1000 nM.

**Q.** And the “toxicity in normal human cells” value [7]?
**A.** Its value is “minimal toxicity; also recorded: no toxicity”.

**Q.** What about the remaining activity at 5 µM [8] of the same molecule?
**A.** Its remaining activity at 5 µM is 62%.

**Q.** And the IC50 [9]?
**A.** Its IC50 is 315 nM.

**Q.** What about the remaining activity at 5 µM [10] of the same molecule?
**A.** The remaining activity at 5 µM was 111%.

**Q.** And the remaining activity at 5 µM [11]?
**A.** The remaining activity at 5 µM was 92.1%.

**Q.** CN(CC(=O)N(Cc1ccc(C2CCCCC2)cc1)c1ccc(C(=O)NO)cc1)S(=O)(=O)c1c(F)c(F)c(F)c(F)c1F [Compound 32, 4-(N-(4-cyclohexylbenzyl)-2-(2,3,4,5,6-pentafluoro-N-methylphenylsulfonamido)acetamido)-N-hydroxybenzamide] was tested. Which EC50 [1] did it give?
**A.** The EC50 was 66 to 1140 nM.

**Q.** And the IC50 [1]?
**A.** Its IC50 is 100 to 3800 nM.

**Q.** What about the IC50 [2] of the same molecule?
**A.** The IC50 was about 1.01 µM.

**Q.** And the IC50 [3]?
**A.** Its IC50 is 15900 nM.

**Q.** And the remaining activity at 5 µM [4]?
**A.** Its remaining activity at 5 µM is 58.3%.

**Q.** And the “% Enzyme activity relative to DMSO (control), c-Src” value [4, 12]?
**A.** The value was 54.21%.

**Q.** What about the IC50 [5] of the same molecule?
**A.** The IC50 was under 1000 nM.

**Q.** And the IC50 [6]?
**A.** The IC50 was under 1000 nM.

**Q.** And the “toxicity in normal human cells” value [7]?
**A.** Its value is “minimal toxicity”.

**Q.** What about the remaining activity at 5 µM [8] of the same molecule?
**A.** Its remaining activity at 5 µM is 67.1%.

**Q.** What about the “% Enzyme activity relative to DMSO (control), JAK2” value [8, 12] of the same molecule?
**A.** The value was 61.26%.

**Q.** What about the IC50 [9] of the same molecule?
**A.** Its IC50 is 588 nM.

**Q.** And the remaining activity at 5 µM [10]?
**A.** Its remaining activity at 5 µM is 110%.

**Q.** What about the “% Enzyme activity relative to DMSO (control), ERK1” value [10, 12] of the same molecule?
**A.** Its value is 106.21%.

**Q.** What about the remaining activity at 5 µM [11] of the same molecule?
**A.** The remaining activity at 5 µM was 94.6%.

**Q.** And the “% Enzyme activity relative to DMSO (control), AKT1” value [11, 12]?
**A.** Its value is 92.09%.
